In US20230403873A1, “ORGANIC COMPOUND AND ORGANIC LIGHT-EMITTING DEVICE” (CANON KABUSHIKI KAISHA, priority 2022, published 2023) one finds Weight-loss initiation temperature, Sublimation temperature and solubility data, which are given here for 6 compounds.

What all share (type): physicochemical
Data set [1] in a line: Evaluation of thermal properties: weight-loss initiation temperature by thermogravimetry/differential thermal analyzer STA7200. The settings on record: under atmospheric pressure. Here is the method:
(§1) The weight-loss initiation temperatures of compounds (1), (5), (10) and compound A, serving as a compound of a comparative example, under atmospheric pressure were measured with a thermogravimetry/differential thermal analyzer STA7200 (available from Hitachi High-Tech Science Corporation). In addition, the sublimation temperature was defined as the temperature at which the rate of weight loss under vacuum (2 Pa) reached 5% and was measured with a thermogravimetry/differential thermal analyzer TA7000 (available from Hitachi High-Tech Science Corporation).

Data set [2] is described as follows: Evaluation of thermal properties: sublimation temperature under vacuum by thermogravimetry/differential thermal analyzer TA7000. Particulars: temperature at which the rate of weight loss under vacuum (2 Pa) reached 5%. Here is the method: as §1
Data set [3] can be described thus: Evaluation of solubility in toluene. The settings on record: organic solvent or mixture, thermodynamic from solid; 50 mg in 1 mL of toluene, stirred at room temperature. The protocol:
First, 50 mg of compound (25), 50 mg of compound (29), which were synthesized in the above examples, and 50 mg of compound A as a comparative example were placed in respective sample bottles each containing 1 mL of toluene. The mixtures were stirred at room temperature to determine whether the compounds were dissolved.

In general, solubility refers to how much of the substance goes into solution per volume. The compound `CC(C)(C)c1cc2ccc3cc4c(c5ccc(c1)c2c35)-c1ccc(-c2ccc(-c3ccc(-c5ccc6c(c5)C(C)(C)c5cc7ccc8cc(C(C)(C)C)cc9ccc(c5-6)c7c89)cc3)cc2)cc1C4(C)C` [Compound A] yielded a Weight-loss initiation temperature in data set [1] of 550 °C. The compound also gave a Sublimation temperature in data set [2] of 470 °C. Besides, the solubility in data set [3] was under 50 mg/mL.

In the case of `CC(C)(C)c1cc2ccc3cc4c(c5ccc(c1)c2c35)-c1ccc(-c2cccc(-c3ccc5c(c3)C(C)(C)c3cc6ccc7cc(C(C)(C)C)cc8ccc(c3-5)c6c78)n2)cc1C4(C)C` [(10)], in data set [1], the Weight-loss initiation temperature was determined as 260 °C. In data set [2], this compound gave a Sublimation temperature of 205 °C.

For `CC(C)(C)c1cc2ccc3cc4c(c5ccc(c1)c2c35)-c1ccc(-c2ccc3c(c2)C2(c5ccccc5-c5ccccc52)c2cc(-c5ccc6c(c5)C(C)(C)c5cc7ccc8cc(C(C)(C)C)cc9ccc(c5-6)c7c89)ccc2-3)cc1C4(C)C` [Compound (25)], in data set [3], the solubility was over 50 mg/mL.

`CC(C)(C)c1cc2ccc3cc4c(c5ccc(c1)c2c35)-c1ccc(-c2cc(-c3ccc5c(c3)C(C)(C)c3cc6ccc7cc(C(C)(C)C)cc8ccc(c3-5)c6c78)ncn2)cc1C4(C)C` [Compound (1)] came in with a Weight-loss initiation temperature in data set [1] of 450 °C. The Sublimation temperature in data set [2] turned out to be 385 °C.

For the compound `CC(C)(C)c1cc2ccc3cc4c(c5ccc(c1)c2c35)-c1ccc(-c2ccc3c(c2)C2(c5ccccc5-3)c3ccccc3-c3ccc(-c5ccc6c(c5)C(C)(C)c5cc7ccc8cc(C(C)(C)C)cc9ccc(c5-6)c7c89)cc32)cc1C4(C)C` [Compound (29)], the solubility in data set [3] is over 50 mg/mL.

Take `CC(C)(C)c1cc2ccc3cc4c(c5ccc(c1)c2c35)-c1ccc(-c2ncnc(-c3ccc5c(c3)C(C)(C)c3cc6ccc7cc(C(C)(C)C)cc8ccc(c3-5)c6c78)n2)cc1C4(C)C` [Compound (5)]: the Weight-loss initiation temperature in data set [1] came out at 385 °C. In data set [2], this compound showed a Sublimation temperature of 315 °C.
